Results: US20250368633A1, “AZEPINE FUSED RING COMPOUND AS RIPK1 INHIBITOR AND USE THEREOF” (ARTIVILA BIOPHARMA, priority 2022, published 2025)

Legend:
[1] = biological target: T1, RIPK1 kinase (Homo sapiens, UniProt Q13546); experiment: In vitro RIPK1 kinase activity assay (ADP-Glo), inhibition by compounds at 1 μM; assay type: biochemical; details: compound 1 μM; ATP 10 μM; MBP substrate 100 μg/mL; read-out: RIPK1 kinase activity inhibition rate range
T1 construct: purchased Promega VA7593
T1 sequence (Q13546 1-671): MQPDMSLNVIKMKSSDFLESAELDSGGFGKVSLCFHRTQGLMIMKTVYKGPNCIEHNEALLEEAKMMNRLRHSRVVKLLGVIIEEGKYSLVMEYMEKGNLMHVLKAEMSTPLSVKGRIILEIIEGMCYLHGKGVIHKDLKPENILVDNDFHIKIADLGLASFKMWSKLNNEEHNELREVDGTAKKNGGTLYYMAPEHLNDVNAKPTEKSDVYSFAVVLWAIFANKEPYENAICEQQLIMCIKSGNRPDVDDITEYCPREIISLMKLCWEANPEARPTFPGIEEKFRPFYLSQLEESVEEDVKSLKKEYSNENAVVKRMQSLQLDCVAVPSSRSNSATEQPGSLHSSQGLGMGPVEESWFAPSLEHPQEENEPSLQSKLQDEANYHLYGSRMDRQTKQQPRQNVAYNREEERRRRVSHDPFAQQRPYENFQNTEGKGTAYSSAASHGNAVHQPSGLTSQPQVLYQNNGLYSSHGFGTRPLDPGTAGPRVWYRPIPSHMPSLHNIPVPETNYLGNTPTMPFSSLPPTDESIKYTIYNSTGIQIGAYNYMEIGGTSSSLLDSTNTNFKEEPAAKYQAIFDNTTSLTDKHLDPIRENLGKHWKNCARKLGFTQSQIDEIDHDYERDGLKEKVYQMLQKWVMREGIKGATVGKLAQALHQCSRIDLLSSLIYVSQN
Method in brief: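 Read by ADP-Glo chemiluminescence as percent inhibition: RIPK1 kinase, 15-min room-temperature compound preincubation, then 1-h reaction with MBP (100 μg/mL final) and ATP (10 μM final). Enzyme level was set by titration.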

[2] = test system: U937 cells; experiment: Inhibition rate of compound (1 μM) on necroptosis of U937 cells (TSZ-induced, CellTiter-Glo); assay type: cell-based; details: TSZ (hTNF-α, SM-164, Z-VAD-FMK) 20 hours
Method in brief: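 Percent inhibition comes from ATP luminescence (CellTiter-Glo), referenced to wells without TSZ and wells with TSZ alone. The compound was added to U937 cells 15 min ahead of a TNF-α/SM-164/Z-VAD-FMK mix, followed by 20 h culture at 37° C, 5% CO2.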

inhibition at 1 µM [1] [%] | SMILES | Inhibition rate range of compounds (1 μM) on U937 cell necroptosis [2]
≥ 75 | CN1C(=O)[C@@H](NC(=O)C(=O)NCCc2ccccc2)COc2ccc(C#CCN3CCC(O)CC3)cc21 [Example 81, (S)—N^1-(7-(3-(4-hydroxypiperidin-1-yl)prop-1-yn-1-yl)-5-methyl-4-oxo-2,3,4,5-tetrahydrobenzo[b][1,4]oxazepin-3-yl)-N^2-phenethyloxalamide] | A (A: ≥90%)
≥ 75 | CN1C(=O)[C@@H](NC(=O)C(=O)NCCc2ccccc2)COc2ccc(C#CCN3C(=O)CCC3=O)cc21 [Example 84, (S)—N^1-(7-(3-(2,5-dioxopyrrolidin-1-yl)prop-1-yn-1-yl)-5-methyl-4-oxo-2,3,4,5-tetrahydrobenzo[b][1,4]oxazepin-3-yl)-N^2-phenethyloxalamide] | A (A: ≥90%)
≥ 75 | CN1C(=O)[C@@H](NC(=O)C(=O)NCCc2ccccc2)COc2ccc(C#CCN3CCNC(=O)C3)cc21 [Example 85, (S)—N^1-(5-methyl-4-oxo-7-(3-(3-oxopiperazin-1-yl)prop-1-yn-1-yl)-2,3,4,5-tetrahydrobenzo[b][1, 4]oxazepin-3-yl)-N^2-phenethyloxalamide] | B (B: 50-89%)
50 to 74 | CN1C(=O)[C@@H](NC(=O)C(=O)NCCc2ccccc2)COc2ccc(C#CCNC(=O)OC(C)(C)C)cc21 [Example 86, tert-butyl (S)-(3-(5-methyl-4-oxo-3-(2-oxo-2-(phenethylamino)acetamido)-2,3,4,5-tetrahydrobenzo[b][1,4]oxazepin-7-yl)prop-2-yn-1-yl)carbamate] | A (A: ≥90%)
≥ 75 | CN1C(=O)[C@@H](NC(=O)C(=O)NCCc2ccccc2)COc2ccc(C#CCNC(=O)CO)cc21 [Example 88, (S)—N^1-(7-(3-(2-hydroxyacetamido)prop-1-yn-1-yl)-5-methyl-4-oxo-2,3,4,5-tetrahydrobenzo[b][1, 4]oxazepin-3-yl)-N^2-phenethyloxalamide] | A (A: ≥90%)
50 to 74 | C=CC(=O)NCC#Cc1ccc2c(c1)N(C)C(=O)[C@@H](NC(=O)C(=O)NCCc1ccccc1)CO2 [Example 89, (S)—N^1-(7-(3-acrylamidoprop-1-yn-1-yl)-5-methyl-4-oxo-2,3,4,5-tetrahydrobenzo[b][1,4]oxazepin-3-yl)-N^2-phenethyloxalamide] | A (A: ≥90%)
≥ 75 | CN1C(=O)[C@@H](NC(=O)C(=O)NCCc2ccccc2)COc2ccc(C#CC3CN(C=O)C3)cc21 [Example 91, (S)—N^1-(7-((1-formylazetidin-3-yl)ethynyl)-5-methyl-4-oxo-2,3,4,5-tetrahydrobenzo[b][1,4]oxazepin-3-yl)-N^2-phenethyloxalamide] | A (A: ≥90%)
50 to 74 | CN1C(=O)[C@@H](NC(=O)C(=O)NCCc2ccccc2)COc2ccc(C#CC3(O)CN(C=O)C3)cc21 [Example 92, (S)—N^1-(7-((1-formyl-3-hydroxyazetidin-3-yl)ethynyl)-5-methyl-4-oxo-2,3,4,5-tetrahydrobenzo[b][1,4]oxazepin-3-yl)-N^2-phenethyloxalamide] | A (A: ≥90%)
≥ 75 | CCOC(=O)CCC#Cc1ccc2c(c1)N(C)C(=O)[C@@H](NC(=O)C(=O)NCCc1ccccc1)CO2 [Example 94, ethyl (S)-5-(5-methyl-4-oxo-3-(2-oxo-2-(phenethylamino)acetamido)-2,3,4,5-tetrahydrobenzo[b][1,4]oxazepin-7-yl) pent-4-ynoate] | B (B: 50-89%)
≥ 75 | CN1C(=O)[C@@H](NC(=O)C(=O)NCc2ccccc2)COc2ccc(C#CCn3ccnc3)cc21 [Example 104, (S)—N^1-(7-(3-(1H-imidazol-1-yl)prop-1-yn-1-yl)-5-methyl-4-oxo-2,3,4,5-tetrahydrobenzo[b][1,4]oxazepin-3-yl)-N^2-benzyloxalamide] | A (A: ≥90%)
≥ 75 | CN1C(=O)[C@@H](NC(=O)C(=O)NCc2ccccc2)COc2ccc(C#CCN3CCOCC3)cc21 [Example 106, (S)—N^1-benzyl-N^2-(5-methyl-7-(3-morpholinoprop-1-yn-1-yl)-4-oxo-2,3,4,5-tetrahydrobenzo[b][1, 4]oxazepin-3-yl)oxalamide] | B (B: 50-89%)
50 to 74 | CN1C(=O)[C@@H](NC(=O)C(=O)NCc2ccccc2)COc2ccc(C#CCN3CCNC(=O)C3)cc21 [Example 107, (S)—N^1-benzyl-N^2-(5-methyl-4-oxo-7-(3-(3-oxopiperazin-1-yl)prop-1-yn-1-yl)-2,3,4,5-tetrahydrobenzo[b][1,4]oxazepin-3-yl)oxalamide] | A (A: ≥90%)
≥ 75 | CN1C(=O)[C@H](NC(=O)C(=O)NCCc2cccc(F)c2)COc2ccc(C#CCCO)cc21 [Example 109, (R)—N^1-(3-fluorophenethyl)-N^2-(7-(4-hydroxybut-1-yn-1-yl)-5-methyl-4-oxo-2,3,4,5-tetrahydrobenzo[b][1,4]oxazepin-3-yl)oxalamide] | A (A: ≥90%)
≥ 75 | CN1C(=O)[C@@H](NC(=O)C(=O)NCCc2cccc(F)c2)COc2ccc(C#CC3(O)COC3)cc21 [Example 110, (S)—N^1-(3-fluorophenethyl)-N^2-(7-((3-hydroxyoxetan-3-yl)ethynyl)-5-methyl-4-oxo-2,3,4,5-tetrahydrobenzo[b][1,4]oxazepin-3-yl)oxalamide] | A (A: ≥90%)
≥ 75 | CN1C(=O)[C@@H](NC(=O)C(=O)NCCc2cccc(F)c2)COc2ccc(C#CCN3CC[C@@H](O)C3)cc21 [Example 114, N^1-(3-fluorophenethyl)-N^2-((S)-7-(3-((R)-3-hydroxypyrrolidin-1-yl)prop-1-yn-1-yl)-5-methyl-4-oxo-2,3,4,5-tetrahydrobenzo[b][1,4]oxazepin-3-yl)oxalamide] | A (A: ≥90%)
50 to 74 | CN1C(=O)[C@@H](NC(=O)C(=O)NCCc2cccc(F)c2)COc2ccc(C#CCN3CC[C@H](O)C3)cc21 [Example 115, N^1-(3-fluorophenethyl)-N^2-((S)-7-(3-((S)-3-hydroxypyrrolidin-1-yl)prop-1-yn-1-yl)-5-methyl-4-oxo-2,3,4,5-tetrahydrobenzo[b][1,4]oxazepin-3-yl)oxalamide] | A (A: ≥90%)
50 to 74 | CN1C(=O)[C@@H](NC(=O)C(=O)NCCc2cccc(F)c2)COc2ccc(C#Cc3cccnc3)cc21 [Example 117, (S)—N^1-(3-fluorophenethyl)-N^2-(5-methyl-4-oxo-7-(pyridin-3-ylethynyl)-2,3,4,5-tetrahydrobenzo[b][1,4]oxazepin-3-yl)oxalamide] | A (A: ≥90%)
≥ 75 | CN1C(=O)[C@@H](NC(=O)C(=O)NCCc2cccc(F)c2)COc2ccc(C#CCN3CCC(=O)CC3)cc21 [Example 118, (S)—N^1-(3-fluorophenethyl)-N^2-(5-methyl-4-oxo-7-(3-(4-oxopiperidin-1-yl)prop-1-yn-1-yl)-2,3,4,5-tetrahydrobenzo[b][1,4]oxazepin-3-yl)oxalamide] | A (A: ≥90%)
≥ 75 | CN1C(=O)[C@@H](NC(=O)C(=O)NCCc2cccc(F)c2)COc2ccc(C#CCN3CCOCC3)cc21 [Example 120, (S)—N^1-(3-fluorophenethyl)-N^2-(5-methyl-7-(3-morpholinoprop-1-yn-1-yl)-4-oxo-2,3,4,5-tetrahydrobenzo[b][1,4]oxazepin-3-yl)oxalamide] | A (A: ≥90%)
≥ 75 | CN1C(=O)[C@@H](NC(=O)C(=O)NCCc2cccc(F)c2)COc2ccc(C#CCN3C(=O)CCC3=O)cc21 [Example 122, (S)—N^1-(7-(3-(2,5-dioxopyrrolidin-1-yl)prop-1-yn-1-yl)-5-methyl-4-oxo-2,3,4,5-tetrahydrobenzo[b][1,4]oxazepin-3-yl)-N^2-(3-fluorophenethyl)oxalamide] | A (A: ≥90%)
